Laboratory results reported in patent publication US20200055896A1, “SUBSTRATES RECOGNIZED BY FIBROBLAST ACTIVATION PROTEIN (FAP) AND METHODS OF USING THE SAME” (GENENTECH, INC., priority 2017, published 2020).
Entries after “also recorded” stand apart in the source; their conditions may differ. One block for each compound: values may come before it.

Legend:
[1] = system: GP probe cleaving activity in plasma; assay: GP cleavage in mouse plasma in the presence of cpd60 and/or KYP; format: biochemical, mice
Procedure: (§1) Mouse plasma samples were prepared in K3-EDTA MiniCollect tubes (Greiner Bio-One, 450475) and frozen immediately at −80° C. prior to analysis. Human serum samples were obtained from healthy donors or purchased from Discovery Life Sciences, Inc. (Los Osos, Calif.).
(§2) Peptides of the region flanking the C-terminal human FGF21 cleavage site (VGPSQG) or a variant with D-alanine at P2 (VaPSQG) were synthesized (Anaspec, Inc.), containing an amine-terminal donor (HyLite Fluor 488 or Cy5.5 for aP NIRF) and a dark quencher-acceptor (QXL 520 or QSY21 for aP NIRF) conjugated to a supplementary C-terminal lysine. ANPFAP (Bioconjugate Chem 23:1704-11) and aP NIRF were synthesized by CPC Scientific (Sunnyvale, Calif.). Assays were conducted at 37° C. in 50 mM HEPES (pH 7.2), 150 mM NaCl, 1 mM EDTA, 0.1 mg/ml BSA. The excitation/emission wavelengths of cleaved peptide are 490/520 nm or 675/695 nm for ANPFAP and aP NIRF. Fluorescence was monitored on a Tecan M1000 Pro plate reader in kinetic mode. Except where indicated otherwise, measurements of serum or plasma FAP activity were performed with the peptide substrate concentration at 6 μM and a 10-fold dilution of serum or plasma in assay buffer.

circulating FAP activity = target: T1, circulating FAP activity (Mus musculus, UniProt P97321); assay: In vivo pharmacological FAP inhibition: mice fed chow with cpd60, plasma FAP activity by aP peptide; settings: chow with 100 ppm cpd60 ad libitum, day 4 and 7
T1 construct: the extracellular domain encoding the active enzyme can be shed from the cell surface; from tissue; host or cells: mouse plasma (C57BL/6 background; Fap +/+, +/-, -/-)
T1 sequence (P97321 24-761 limits assumed): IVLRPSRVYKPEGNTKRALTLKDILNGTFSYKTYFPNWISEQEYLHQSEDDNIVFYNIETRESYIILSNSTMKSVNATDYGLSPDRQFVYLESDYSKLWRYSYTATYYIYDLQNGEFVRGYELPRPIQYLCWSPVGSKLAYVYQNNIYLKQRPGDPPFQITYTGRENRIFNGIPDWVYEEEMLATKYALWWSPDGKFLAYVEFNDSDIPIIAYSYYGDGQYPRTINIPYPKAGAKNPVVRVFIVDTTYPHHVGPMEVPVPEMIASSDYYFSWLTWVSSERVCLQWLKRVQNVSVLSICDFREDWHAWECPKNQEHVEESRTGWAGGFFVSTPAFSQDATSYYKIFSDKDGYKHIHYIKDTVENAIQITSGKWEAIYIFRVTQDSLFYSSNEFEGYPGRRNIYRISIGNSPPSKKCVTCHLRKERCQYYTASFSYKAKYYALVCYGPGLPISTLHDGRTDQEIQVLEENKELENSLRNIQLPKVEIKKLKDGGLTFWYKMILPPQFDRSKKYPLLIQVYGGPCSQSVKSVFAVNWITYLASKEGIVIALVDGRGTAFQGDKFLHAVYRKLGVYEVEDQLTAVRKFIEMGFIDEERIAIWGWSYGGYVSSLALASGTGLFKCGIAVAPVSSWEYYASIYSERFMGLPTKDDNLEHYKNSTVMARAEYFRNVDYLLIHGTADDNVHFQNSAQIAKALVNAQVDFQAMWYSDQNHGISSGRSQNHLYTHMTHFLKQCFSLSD
Procedure: Mice were maintained in a pathogen-free animal facility at 21° C. under standard 12 h light/12 h dark cycle with access to normal chow (Labdiet 5010) and water ad libitum unless otherwise indicated. Generation of Fap KO mice was described previously (Dunshee, et al. (2016) J Biol Chem 291:5986-96).
as §1
as §2, with “Except where indicated otherwise, measurements of serum or plasma FAP activity were performed with the peptide substrate concentration at 6 μM and a 10-fold dilution of serum or plasma in assay buffer.” left out

FAP-related activity = settings: cynomolgus monkeys, cited from earlier work
recombinant human PREP = target: T2, recombinant human PREP (Homo sapiens, UniProt P48147); assay: FRET-quench assay: probe cleavage by recombinant human PREP; format: biochemical; settings: 10 nM enzyme
T2 construct: purchased R&D Systems 4308-SE
T2 sequence (P48147 1-710): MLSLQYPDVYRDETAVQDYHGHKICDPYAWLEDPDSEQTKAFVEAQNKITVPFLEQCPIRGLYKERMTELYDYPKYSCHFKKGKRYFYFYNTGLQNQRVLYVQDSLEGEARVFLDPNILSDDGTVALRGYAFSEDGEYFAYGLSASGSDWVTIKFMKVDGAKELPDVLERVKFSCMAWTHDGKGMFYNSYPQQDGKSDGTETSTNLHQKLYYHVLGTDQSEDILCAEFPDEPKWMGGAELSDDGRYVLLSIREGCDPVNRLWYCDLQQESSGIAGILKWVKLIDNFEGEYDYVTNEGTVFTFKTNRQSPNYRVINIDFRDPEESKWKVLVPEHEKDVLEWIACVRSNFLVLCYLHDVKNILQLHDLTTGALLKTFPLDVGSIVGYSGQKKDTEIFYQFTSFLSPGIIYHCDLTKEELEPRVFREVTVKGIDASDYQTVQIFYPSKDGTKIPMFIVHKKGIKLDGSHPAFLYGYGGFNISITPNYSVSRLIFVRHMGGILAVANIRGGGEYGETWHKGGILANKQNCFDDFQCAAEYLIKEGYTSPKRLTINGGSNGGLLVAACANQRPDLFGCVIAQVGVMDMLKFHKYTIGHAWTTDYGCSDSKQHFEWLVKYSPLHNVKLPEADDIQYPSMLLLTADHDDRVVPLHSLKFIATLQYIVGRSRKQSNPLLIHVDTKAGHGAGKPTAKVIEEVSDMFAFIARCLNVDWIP
Description: (§3) Human prolyl oligopeptidase (PREP, 4308-SE), DPPIV (1180-SE), DPP9 (5419-SE), and DPPII/DPP7 (3438-SE) proteins were purchased from R&D Systems. Human DPP8 (BML-SE527) protein was purchased from Enzo Life Sciences. N-terminal octa-His-tagged human and mouse FAP proteins containing the extracellular domain (residues L26-D760 and L26-D761, respectively) were purified from the conditioned media of transiently-transfected CHO cells, by immobilized metal affinity chromatography (IMAC), followed by size exclusion chromatography (SEC).
as §2

recombinant human FAP = target: T3, recombinant human FAP (Homo sapiens, UniProt Q12884); assay: FRET-quench assay: probe cleavage by recombinant human FAP; format: biochemical; settings: 10 nM enzyme
T3 construct: (residues L26-D760 and L26-D761, respectively); octa-His (N); made in house; host or cells: transiently transfected CHO cells (conditioned media)
T3 sequence (Q12884 26-760): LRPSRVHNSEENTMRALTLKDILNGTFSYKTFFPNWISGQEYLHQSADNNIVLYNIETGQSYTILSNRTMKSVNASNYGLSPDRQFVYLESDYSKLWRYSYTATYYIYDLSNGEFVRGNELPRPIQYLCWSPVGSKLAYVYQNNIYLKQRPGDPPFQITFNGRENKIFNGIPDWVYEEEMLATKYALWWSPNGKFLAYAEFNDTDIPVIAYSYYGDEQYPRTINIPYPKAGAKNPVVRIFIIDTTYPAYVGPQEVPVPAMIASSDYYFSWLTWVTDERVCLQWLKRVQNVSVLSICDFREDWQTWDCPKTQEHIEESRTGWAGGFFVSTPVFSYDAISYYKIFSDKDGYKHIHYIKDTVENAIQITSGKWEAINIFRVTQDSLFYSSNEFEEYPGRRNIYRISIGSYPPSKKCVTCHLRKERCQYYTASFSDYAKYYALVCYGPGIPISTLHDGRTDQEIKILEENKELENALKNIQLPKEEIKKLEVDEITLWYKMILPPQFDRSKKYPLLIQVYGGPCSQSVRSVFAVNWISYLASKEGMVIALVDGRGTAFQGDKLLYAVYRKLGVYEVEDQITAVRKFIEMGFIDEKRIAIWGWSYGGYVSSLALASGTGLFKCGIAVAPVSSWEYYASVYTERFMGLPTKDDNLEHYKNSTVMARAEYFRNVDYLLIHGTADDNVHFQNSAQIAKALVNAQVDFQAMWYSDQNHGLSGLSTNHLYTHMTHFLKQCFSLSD
Description: as §3, §2

tissue FAP activity = target: T4, tissue FAP activity (Mus musculus, UniProt P97321); assay: Ex vivo NIRF imaging of pancreata after i.v. probe in KPP and healthy C57BL/6 mice
T4 construct: from tissue
T4 sequence (P97321 1-761): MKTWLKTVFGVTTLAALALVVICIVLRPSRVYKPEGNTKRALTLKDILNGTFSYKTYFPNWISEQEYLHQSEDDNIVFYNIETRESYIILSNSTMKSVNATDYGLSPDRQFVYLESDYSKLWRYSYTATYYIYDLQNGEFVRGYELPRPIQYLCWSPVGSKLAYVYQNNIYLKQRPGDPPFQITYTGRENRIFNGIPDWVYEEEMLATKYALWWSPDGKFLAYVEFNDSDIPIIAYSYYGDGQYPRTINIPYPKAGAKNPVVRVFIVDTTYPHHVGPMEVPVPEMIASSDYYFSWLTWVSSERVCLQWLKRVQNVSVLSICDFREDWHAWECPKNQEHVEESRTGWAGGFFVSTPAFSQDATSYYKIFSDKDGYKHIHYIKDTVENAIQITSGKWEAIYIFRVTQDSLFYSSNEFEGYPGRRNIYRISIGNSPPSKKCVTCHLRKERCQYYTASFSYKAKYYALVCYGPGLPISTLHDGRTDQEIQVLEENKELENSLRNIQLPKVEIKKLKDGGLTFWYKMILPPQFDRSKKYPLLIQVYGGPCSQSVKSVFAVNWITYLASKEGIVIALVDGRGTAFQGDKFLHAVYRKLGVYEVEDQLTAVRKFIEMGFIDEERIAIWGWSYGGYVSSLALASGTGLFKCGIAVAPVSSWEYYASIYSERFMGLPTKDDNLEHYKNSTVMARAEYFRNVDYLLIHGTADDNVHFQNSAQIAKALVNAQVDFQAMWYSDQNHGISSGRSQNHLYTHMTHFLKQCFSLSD
Description: The utility of the VaPSQG-NIRF probe for imaging of tissue FAP activity was studied in a genetically engineered mouse model of pancreatic cancer, KrasLSL.G12D/wt;p16/p19fl/fl;Pdx1. Cre, or “KPP” for short (Singh, M. et al. Nat. Biotechnol. 28:585-593 (2010); Aguirre, A. J. et al. Genes Dev. 17:3112-26 (2003)). […] The VaPSQG-NIRF probe was synthesized by CPC Scientific (Sunnyvale, Calif.).
Prior to the imaging study, three KPP mice (9.3 weeks old) with varying tumor volumes were selected based on an in vivo ultrasound scan. Additionally, three healthy C57BL/6 mice (8.3 weeks old) were also studied as controls. One nmol VaPSQG-NIRF probe diluted in 150 microL of PBS was intravenously administered to each mouse via tail vein under anesthesia. […] After 4 hours, the mice were euthanized and pancreas tissues were dissected. The dissected tissues were rinsed with PBS, dried with tissue paper, and put on black paper for ex vivo NIRF imaging. Near infrared images are acquired using a CCD camera (Pearl Trilogy, Li-cor).

Compound: N#C[C@@H]1CCCN1C(=O)[C@@H]1CCCN1C(=O)CCCc1ccccc1 [KYP-2047]
- sensitivity of residual GP probe cleaving activity to the inhibitor ([1]; Fap KO plasma): sensitive

Compound: N#C[C@@H]1CC(F)(F)CN1C(=O)CNC(=O)c1ccnc2ccccc12 [cpd60]
- sensitivity of GP probe activity to the inhibitor ([1]; WT or heterozygous plasma): clearly sensitive
- suppression of circulating (plasma) FAP activity (circulating FAP activity): completely suppress; also recorded: undetectable levels; also recorded: completely suppressed
- change in FAP-related activity (FAP-related activity; bolus p.o.): transient decrease
- clearance from circulation (FAP-related activity): rapid clearance

- cleavage by recombinant human PREP (recombinant human PREP): not
- cleavage by recombinant human FAP (recombinant human FAP): efficiently cleaves
- relative fluorescence intensities normalized to imaging area, KPP versus healthy control pancreata (tissue FAP activity; 4 hours after 1 nmol i.v., P<0.05): much greater fluorescence
- ex vivo imaging fluorescent signal of pancreata (tissue FAP activity; KPP group, 4 hours after 1 nmol i.v.): strong fluorescent signal
Compound: aP NIRF: identical to aP, but the FRET donor and quencher replaced with Cy5.5 and QSY21
- treatment-related adverse effect (tissue FAP activity; mice, 1 nmol i.v. via tail vein, until euthanasia after 4 hours): No treatment-related adverse effect was observed
